Test results published in patent US6355659B1, “4-(4-Chlorophenyl)-1236-tetrahydro-1(1H-124-triazol-1-yl)butty)pyrideine and salts thereof; pharmaceutical compositions and method of treating psychoses utilizing same” (Laboratorios Del Dr. Esteve, S.A., priority 1994, dated 2002).
Counter-ions that a name gives are not always drawn. Like-named read-outs stand apart in the source and are kept apart here.

What was measured:
catalepsy = assay: Induction of catalepsy in rats; type: in vivo; conditions: s.c.
Text: The induction of catalepsy in rats [J. Robert et al., J. Pharmacol. Exp. Ther., 1986, 239, 124] is a parameter that is commonly employed for determining the ability of antipsychotics to induce extrapyramidal effects. The typical antipsychotics are those which, in spite of being very powerful in specific tests of antipsychotic activity, induce extrapyramidal effects, and this is detected in the catalepsy test. The best known of the typical antipsychotics is haloperidol, whereas the best known of the atypical antipsychotics is clozapine.

protein c-fos = assay: Induction of the protein c-fos in various brain areas in the rat (Western blot); type: in vivo; conditions: sc; for activity at 30 mg/kg: rat, acute treatment, 30 mg/kg s.c.
Text: Induction of the Protein c-fos in Various Brain Areas in the Rat
Acute treatment with various antipsychotics is characterized by the induction of the protein c-fos, owing to the rapid induction off the c-fos gene in various areas of the limbic and extrapyramidal systems [M. Dragunow et al., Neuroscience, 1990, 37, 287-294; J. C. Miller, J. Neurochem., 1990, 54, 1453-1455; A. Y. Deutch et al., Mol. Cell. Neurosci., 1992, 3, 332-341; T. V. Nguyen et al., Proc. Natl. Acad. Sci. USA, 1992, 89, 4270-4274; G. S. Robertson and H. C. Fibinger, Neuroscience, 1992, 46, 315-328]. The patterns of induction of the protein depend on whether the antipsychotic is typical or atypical [G. S. Robertson et al., J. Pharmacol. Exp. Ther., 1994, 271, 1058-1066; G. S. Robertson and H. C. Fibinger, Neuroscience, 1992, 46, 315-328]. These changes in expression of c-fos can be investigated by extraction of the proteins from the brain areas of interest, and analysis of the levels by electrophoresis (Western blot).

5-HT1A = target: T1, 5-HT1A (Homo sapiens, UniProt P08908); assay: 5-HT1A receptor affinity; type: binding
T1 sequence (P08908 1-422): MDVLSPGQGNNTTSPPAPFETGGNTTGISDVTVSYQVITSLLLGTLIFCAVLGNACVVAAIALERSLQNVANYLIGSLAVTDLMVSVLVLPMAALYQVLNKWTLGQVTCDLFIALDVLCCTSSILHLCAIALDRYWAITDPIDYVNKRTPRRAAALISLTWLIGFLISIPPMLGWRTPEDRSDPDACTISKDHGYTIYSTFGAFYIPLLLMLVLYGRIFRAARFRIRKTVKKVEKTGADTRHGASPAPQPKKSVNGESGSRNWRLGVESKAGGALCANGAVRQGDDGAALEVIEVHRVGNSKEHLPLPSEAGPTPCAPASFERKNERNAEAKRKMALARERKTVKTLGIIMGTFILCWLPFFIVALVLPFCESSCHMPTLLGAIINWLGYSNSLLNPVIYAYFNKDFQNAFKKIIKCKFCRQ

SIGMA-1 (σ1) = SIGMA-1 (σ1) (Homo sapiens, UniProt Q99720); assay: Sigma-1 receptor affinity; type: binding; conditions: SIGMA-1 (σ1) receptor
SIGMA-2 (σ2) = SIGMA-2 (σ2) (Homo sapiens, UniProt Q5BJF2); assay: Sigma-2 receptor affinity; type: binding; conditions: SIGMA-2 (σ2) receptor
SIGMA-2 (σ2), sequence (Q5BJF2 whole entry): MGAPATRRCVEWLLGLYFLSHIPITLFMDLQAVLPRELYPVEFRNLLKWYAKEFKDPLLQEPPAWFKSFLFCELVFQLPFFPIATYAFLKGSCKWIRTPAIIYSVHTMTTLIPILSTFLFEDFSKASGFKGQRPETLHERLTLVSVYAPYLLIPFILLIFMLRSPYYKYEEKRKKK

SIGMA-1 (σ1), sequence (Q99720 whole entry): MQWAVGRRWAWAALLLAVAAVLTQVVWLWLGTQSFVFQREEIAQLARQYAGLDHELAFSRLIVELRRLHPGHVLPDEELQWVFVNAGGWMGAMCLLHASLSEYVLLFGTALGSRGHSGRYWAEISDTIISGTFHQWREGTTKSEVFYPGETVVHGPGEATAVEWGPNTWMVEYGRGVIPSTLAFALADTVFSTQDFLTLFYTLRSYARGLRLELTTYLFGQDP

Row | Structure (SMILES) | Induction of catalepsy, DE-50 (catalepsy) | Induction of catalepsy, DE-50 (catalepsy; listed as haloperidol) [mg/kg] | activity at 20 mg/kg (protein c-fos; read-out: Fos immunoreactivity % change relative to control, Dorsolateral groove, rat, acute treatment, 20 mg/kg s.c., % of saline group) [%] | activity at 20 mg/kg (protein c-fos; read-out: Fos immunoreactivity % change relative to control, Medial area of prefrontal cortex, rat, acute treatment, 20 mg/kg s.c., % of saline group) [%] | activity at 20 mg/kg (protein c-fos; read-out: Fos immunoreactivity % change relative to control, Nucleus accumbens, rat, acute treatment, 20 mg/kg s.c., % of saline group) [%] | Ki (5-HT1A) [nM] | Ki (SIGMA-1 (σ1)) [nM] | Ki (SIGMA-2 (σ2)) [nM] | activity at 30 mg/kg (protein c-fos; read-out: Fos immunoreactivity % change relative to control, Dorsolateral groove) [%] | activity at 30 mg/kg (protein c-fos; read-out: Fos immunoreactivity % change relative to control, Medial area of prefrontal cortex) [%] | activity at 30 mg/kg (protein c-fos; read-out: Fos immunoreactivity % change relative to control, Nucleus accumbens) [%]
1 | O=C(CCCN1CCC(O)(c2ccc(Cl)cc2)CC1)c1ccc(F)cc1 [Haloperidol, haloperidol] | DE-50 = 0.14 mg/kg, | 0.14 | – | – | – | – | – | – | – | – | –
2 | Clc1ccc(C2=CCN(CCCCn3cncn3)CC2)cc1 [Example 2, 4-(4-chlorophenyl)-1,2,3,6-tetrahydro-1-[4-(1H-1,2,4-triazol-1-yl)butyl]pyridine hydrochloride] | – | – | 104 | 134 | 118 | 600 | 3.7 | 465 | – | – | –
3 | CN1CCN(C2=Nc3cc(Cl)ccc3Nc3ccccc32)CC1 [Clozapine, clozapine] | Inactive up to 80 mg/kg | – | – | – | – | – | – | – | 110 | 134 | 118
